The values that follow come from patent US10954252B1, “Inhibitors of human immunodeficiency virus replication” (ViiV HEALTHCARE UK (NO.5) LIMITED, priority 2017, dated 2021).

Data set [1] is described as follows: Compound cytotoxicity, XTT-based colorimetric assay. The class given is cell-based. To be noted: human, uninfected MT2 cells. In a few lines:
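CC50 from uninfected MT2 cells run under the antiviral-assay protocol without virus. Viability read on day 4 by XTT colorimetric assay.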
On the technique in general: Formazan colour is commonly taken as a measure of viable cells.

Data set [2] relates to recombinant NL4-3 virus (nef section replaced with Renilla luciferase gene) in MT-2 cells. Kind of data set: HIV cell culture assay (antiviral activity, luciferase readout). The class given is cell-based. The following applies: MT-2 cells infected for 4-5 days with recombinant NL4-3 luciferase virus. In a few lines:
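NL4-3 reporter virus carrying Renilla luciferase in place of part of nef, produced in 293T cells, was used to infect MT-2 cells for 4-5 days with serial compound dilutions. Luciferase activity was read with a live-cell substrate; EC50 derived from the median effect equation.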

The term CC50 denotes the concentration that lowers cell viability or growth by half. Low readings indicate greater toxicity to the cells, high ones lower toxicity to the cells. The term EC50 denotes the concentration at which the effect is half-maximal.

Regarding `Cn1nc(NS(C)(=O)=O)c2c(Cl)ccc(-n3c([C@H](Cc4cc(F)cc(F)c4)NC(=O)Cc4c[nH]c5ccc(O)cc45)nc4ncccc4c3=O)c21` [Example 53, N-[(1S)-1-[3-(4-chloro-3-methanesulfonamido-1-methyl-1H-indazol-7-yl)-4-oxo-3H,4H-pyrido[2,3-d]pyrimidin-2-yl]-2-(3,5-difluorophenyl)ethyl]-2-(5-hydroxy-1H-indol-3-yl)acetamide], the 50% cytotoxic concentration (CC50) at 4 days in data set [1] (Table 1a, day 4, XTT) was above 1000 nM. Further, in data set [2] (Renilla, NL43, Table 1a), the concentration for a half-maximal effect (EC50) worked out at 5.71 nM.
The compound `COc1ccc2c(=O)n(-c3ccc(Cl)c4c(NS(C)(=O)=O)nn(C)c34)c([C@H](Cc3cc(F)cc(F)c3)NC(=O)Cn3nc(C(F)F)c4c3C(F)(F)[C@@H]3C[C@H]43)nc2c1` (single isomer, unassigned) [Example 17] gave a CC50 at 4 days in data set [1] (Table 1, day 4, XTT) above 10000 nM. Also, in data set [2] (Renilla, NL43, Table 1), the EC50 is 61 nM.
`O=C(Cn1nc(C(F)F)c2c1C(F)(F)[C@@H]1C[C@H]21)N[C@@H](Cc1cc(F)cc(F)c1)c1nc2ncccc2c(=O)n1-c1ccc(S(=O)(=O)N2CCOCC2)cc1` [Example 10.38] displayed a 50% cytotoxic concentration (CC50) at 4 days in data set [1] (Table 1, day 4, XTT) above 10000 nM. Also, the EC50 in data set [2] (Renilla, NL43, Table 1) is 0.204 nM.
`O=C(Cn1nc(C(F)F)c2c1C(F)(F)[C@@H]1C[C@H]21)N[C@@H](Cc1cc(F)cc(F)c1)c1nc2ccccc2c(=O)n1-c1ccc(S(=O)(=O)N2CCOCC2)cc1` [Example 165, 2-((3bS,4aR)-3-(difluoromethyl)-5,5-difluoro-3b,4,4a,5-tetrahydro-1H-cyclopropa[3,4]cyclopenta[1,2-c]pyrazol-1-yl)-N—((S)-2-(3,5-difluorophenyl)-1-(3-(4-(morpholinosulfonyl)phenyl)-4-oxo-3,4-dihydroquinazolin-2-yl)ethyl)acetamide] came in with a 50% cytotoxic concentration (CC50) at 4 days in data set [1] (Table 1a, day 4, XTT) above 10000 nM. The 50% effective concentration (EC50) in data set [2] (Renilla, NL43, Table 1a) is 0.23 nM.
In the same order, the values of `O=C(Cn1nc(C(F)F)c2c1C(F)(F)[C@@H]1C[C@H]21)N[C@@H](Cc1cc(F)cc(F)c1)c1nc2ncccc2c(=O)n1-c1ccc2c(c1)C(=O)NC2` [Example 31, 2-[(2S,4R)-9-(difluoromethyl)-5,5-difluoro-7,8-diazatricyclo[4.3.0.0^2,4]nona-1(6),8-dien-7-yl]-N-[(1S)-2-(3,5-difluorophenyl)-1-[4-oxo-3-(3-oxo-2,3-dihydro-1H-isoindol-5-yl)-3H,4H-pyrido[2,3-d]pyrimidin-2-yl]ethyl]acetamide] are above 10000 nM and 0.99 nM.
For the compound `Cc1cc(C)c2c(=O)n(-c3ccc(Cl)c4c(NS(C)(=O)=O)nn(C)c34)c([C@H](Cc3cc(F)cc(F)c3)NC(=O)Cn3nc(C(F)F)c4c3C(F)(F)[C@@H]3C[C@H]43)nc2n1` [Example 42.2, N-[(1S)-1-[3-(4-chloro-3-methanesulfonamido-1-methyl-1H-indazol-7-yl)-5,7-dimethyl-4-oxo-3H,4H-pyrido[2,3-d]pyrimidin-2-yl]-2-(3,5-difluorophenyl)ethyl]-2-[(2S,4R)-9-(difluoromethyl)-5,5-difluoro-7,8-diazatricyclo[4.3.0.0^2,4]nona-1(6),8-dien-7-yl]acetamide], the CC50 at 4 days in data set [1] (Table 1a, day 4, XTT) is above 10000 nM. The EC50 in data set [2] (Renilla, NL43, Table 1a) was found to be 0.016 nM.
On the same counts, the results for `Cc1ccc2c(=O)n(-c3ccc(Cl)c4c(NS(C)(=O)=O)nn(C)c34)c([C@H](Cc3cc(F)cc(F)c3)NC(=O)Cn3nc(C(F)F)c4c3C(F)(F)[C@@H]3C[C@H]43)nc2n1` (mixture of isomers) [Example 41.2, N-[(1S)-1-[3-(4-chloro-3-methanesulfonamido-1-methyl-1H-indazol-7-yl)-7-methyl-4-oxo-3H,4H-pyrido[2,3-d]pyrimidin-2-yl]-2-(3,5-difluorophenyl)ethyl]-2-[(2S,4R)-9-(difluoromethyl)-5,5-difluoro-7,8-diazatricyclo[4.3.0.0^2,4]nona-1(6),8-dien-7-yl]acetamide] are above 10000 nM and 0.022 nM.
On the same counts, the results for `Cn1nc(NS(C)(=O)=O)c2c(Cl)ccc(-n3c([C@H](Cc4cc(F)cc(F)c4)NC(=O)Cn4nc(C(F)F)c5c4C(F)(F)[C@@H]4C[C@H]54)nc4cc(Cl)cc(Cl)c4c3=O)c21` (mixture of isomers) [Example 178, N—((S)-1-(5,7-dichloro-3-(4-chloro-1-methyl-3-(methylsulfonamido)-1H-indazol-7-yl)-4-oxo-3,4-dihydroquinazolin-2-yl)-2-(3,5-difluorophenyl)ethyl)-2-((3bS,4aR)-3-(difluoromethyl)-5,5-difluoro-3b,4,4a,5-tetrahydro-1H-cyclopropa[3,4]cyclopenta[1,2-c]pyrazol-1-yl)acetamide] are above 1000 nM and 18.1 nM.
`Cn1nc(NS(C)(=O)=O)c2c(Cl)ccc(-n3c([C@H](Cc4cc(F)cc(F)c4)NC(=O)Cc4c[nH]c5ccc(F)cc45)nc4ncccc4c3=O)c21` [Example 51, N-[(1S)-1-[3-(4-chloro-3-methanesulfonamido-1-methyl-1H-indazol-7-yl)-4-oxo-3H,4H-pyrido[2,3-d]pyrimidin-2-yl]-2-(3,5-difluorophenyl)ethyl]-2-(5-fluoro-1H-indol-3-yl)acetamide] came in with a CC50 at 4 days in data set [1] (Table 1a, day 4, XTT) above 1000 nM. Besides, in data set [2] (Renilla, NL43, Table 1a), the EC50 was determined as 1.04 nM.
`COc1c(F)cc2c(=O)n(-c3ccc(Cl)c4c(NS(C)(=O)=O)nn(C)c34)c([C@H](Cc3cc(F)cc(F)c3)NC(=O)Cn3nc(C(F)F)c4c3C(F)(F)[C@@H]3C[C@H]43)nc2c1F` (mixture of isomers) [Example 114]: the cytotoxic concentration (CC50) at 4 days in data set [1] (Table 1a, day 4, XTT) is above 1000 nM. Besides, the concentration giving a half-maximal response (EC50) in data set [2] (Renilla, NL43, Table 1a) was found to be 0.071 nM.
As for `N#Cc1ccc(-c2cc3[nH]ncc3nc2[C@H](Cc2cc(F)cc(F)c2)NC(=O)Cn2nc(C(F)F)c3c2C(F)(F)[C@@H]2C[C@H]32)cc1F` [Example 10.4, N—((S)-1-(6-(4-cyano-3-fluorophenyl)-1H-pyrazolo[4,3-b]pyridin-5-yl)-2-(3,5-difluorophenyl)ethyl)-2-((3bS,4aR)-3-(difluoromethyl)-5,5-difluoro-3b,4,4a,5-tetrahydro-1H-cyclopropa[3,4]cyclopenta[1,2-c]pyrazol-1-yl)acetamide], in data set [1] (Table 1, day 4, XTT), the midpoint of cytotoxicity, the CC50 at 4 days, lay at 8240 nM. The 50% effective concentration (EC50) in data set [2] (Renilla, NL43, Table 1) worked out at 1150 nM.
In turn, `CS(=O)(=O)Nc1nn(CC(F)(F)F)c2c(-c3cc4[nH]ncc4nc3[C@H](Cc3cc(F)cc(F)c3)NC(=O)Cn3nc(C(F)F)c4c3C(F)(F)[C@@H]3C[C@H]43)ccc(Cl)c12` (single isomer, unassigned) [Example 94] registered a 50% cytotoxic concentration (CC50) at 4 days in data set [1] (Table 1a, day 4, XTT) above 1000 nM. Moreover, the EC50 in data set [2] (Renilla, NL43, Table 1a) was determined as 0.146 nM.
Turning to `CC(C)c1ccc(-n2c([C@H](Cc3cc(F)cc(F)c3)NC(=O)Cn3nc(C(F)F)c4c3C(F)(F)[C@@H]3C[C@H]43)nc3ncccc3c2=O)cc1` [Example 10.35], the 50% cytotoxic concentration (CC50) at 4 days in data set [1] (Table 1, day 4, XTT) came out at 1900 nM. The EC50 in data set [2] (Renilla, NL43, Table 1) worked out at 1.7 nM.
On to `O=C(Cn1nc(C(F)F)c2c1C(F)(F)[C@@H]1C[C@H]21)N[C@@H](Cc1cc(F)cc(F)c1)c1nc2ncccc2c(=O)n1-c1ccc(Cl)c2c(NS(=O)(=O)C3CC3)nn(CC(F)F)c12` (mixture of isomers) [Example 45.2, N-[(1S)-1-{3-[4-chloro-3-cyclopropanesulfonamido-1-(2,2-difluoroethyl)-1H-indazol-7-yl]-4-oxo-3H,4H-pyrido[2,3-d]pyrimidin-2-yl}-2-(3,5-difluorophenyl)ethyl]-2-[(2S,4R)-9-(difluoromethyl)-5,5-difluoro-7,8-diazatricyclo[4.3.0.0^2,4]nona-1(6),8-dien-7-yl]acetamide], for which the CC50 at 4 days in data set [1] (Table 1a, day 4, XTT) was above 1000 nM. The EC50 in data set [2] (Renilla, NL43, Table 1a) worked out at 0.024 nM.
In data set [1] (Table 1, day 4, XTT), `O=C(Cc1c[nH]c2ccc(O)cc12)NC(Cc1cc(F)cc(F)c1)c1nc2cn[nH]c2cc1-c1ccc2scnc2c1` (single isomer, unassigned) [Example 3.3, N-(1-(6-(benzo[d]thiazol-5-yl)-1H-pyrazolo[4,3-b]pyridin-5-yl)-2-(3,5-difluorophenyl)ethyl)-2-(5-hydroxy-1H-indol-3-yl)acetamide] registered a 50% cytotoxic concentration (CC50) at 4 days of 42400 nM. Also, in data set [2] (Table 1), the 50% effective concentration (EC50) turned out to be 5.7 nM.
`O=C(Cn1nc(C(F)F)c2c1C(F)(F)[C@@H]1C[C@H]21)N[C@@H](Cc1cc(F)cc(F)c1)c1nc2ncccc2c(=O)n1-c1ccc2ncsc2c1` [Example 36, N-[(1S)-1-[3-(1,3-benzothiazol-6-yl)-4-oxo-3H,4H-pyrido[2,3-d]pyrimidin-2-yl]-2-(3,5-difluorophenyl)ethyl]-2-[(2S,4R)-9-(difluoromethyl)-5,5-difluoro-7,8-diazatricyclo[4.3.0.0^2,4]nona-1(6),8-dien-7-yl]acetamide] returned a 50% cytotoxic concentration (CC50) at 4 days in data set [1] (Table 1a, day 4, XTT) above 1000 nM. Further, the concentration for a half-maximal effect (EC50) in data set [2] (Renilla, NL43, Table 1a) worked out at 10.4 nM.
In the case of `Cn1nc(NS(C)(=O)=O)c2c(Cl)ccc(-c3cc4[nH]ccc4nc3C(Cc3cc(F)cc(F)c3)NC(=O)Cn3nc(C(F)F)c4c3C(F)(F)[C@@H]3C[C@H]43)c21` (single isomer, unassigned) [Example 5.1], in data set [1] (Table 1, day 4, XTT), the cytotoxic concentration (CC50) at 4 days was above 10000 nM. In data set [2] (Table 1), the concentration giving a half-maximal response (EC50) came out at 220 nM.
For the compound `CS(=O)(=O)NC(=O)c1cc(-c2cc3[nH]ncc3nc2[C@H](Cc2cc(F)cc(F)c2)NC(=O)Cn2nc(C(F)F)c3c2C(F)(F)[C@@H]2C[C@H]32)ccc1F` [Example 10.26, 5-(5-((S)-1-(2-((3bS,4aR)-3-(difluoromethyl)-5,5-difluoro-3b,4,4a,5-tetrahydro-1H-cyclopropa[3,4]cyclopenta[1,2-c]pyrazol-1-yl)acetamido)-2-(3,5-difluorophenyl)ethyl)-1H-pyrazolo[4,3-b]pyridin-6-yl)-2-fluoro-N-(methylsulfonyl)benzamide], the CC50 at 4 days in data set [1] (Table 1, day 4, XTT) was above 10000 nM. Besides, in data set [2] (Renilla, NL43, Table 1), the EC50 amounted to 930 nM.
In the case of `O=C(Cn1nc(C(F)F)c2c1C(F)(F)[C@@H]1C[C@H]21)NC(Cc1cc(F)cc(F)c1)c1nc2cn[nH]c2cc1-c1ccc(OC(F)F)cc1` (single isomer, unassigned) [Example 3.10], in data set [1] (Table 1, day 4, XTT), the half-maximal cytotoxic concentration (CC50) at 4 days came to 6800 nM. In data set [2] (Renilla, NL43, Table 1), the 50% effective concentration (EC50) is 320 nM.
